# Columns and labels:
# Assay type in all cases: in vivo
# [1] = test system: chickweed (common chickweed, Stellaria media); assay: Test C greenhouse herbicide test, postemergence
# Summary of the method: (§1)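 Test chemicals were applied postemergence to greenhouse plants at the 1- to 4-leaf stage (2–18 cm tall) growing in peat/vermiculite medium. After 13–15 d, injury was rated visually against untreated controls on a 0–100 scale (0 = no effect, 100 = complete control).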
# [2] = test system: kochia (Kochia scoparia); assay: Test C greenhouse herbicide test, postemergence
# Summary of the method: as §1
# [3] = test system: oat, wild (wild oat, Avena fatua); assay: Test C greenhouse herbicide test, postemergence
# Summary of the method: as §1
# [4] = test system: ducksalad (Heteranthera limosa); assay: Test B flooded paddy test; settings: 250 g ai/ha, Flood; visual rating on scale of 0 to 100 where 0 is no effect and 100 is complete control; 13 to 15 d after treatment
# Summary of the method: (§2)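 Plants grown to the 2-leaf stage. At treatment, pots were flooded to 3 cm above the soil, compound was applied directly to the paddy water, and that depth was held throughout. After 13 to 15 d in the greenhouse, response was rated visually against controls on a 0 (no effect) to 100 (complete control) scale.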
# [5] = test system: rice (Oryza sativa); assay: Test B flooded paddy test; settings: 250 g ai/ha, Flood; visual rating on scale of 0 to 100 where 0 is no effect and 100 is complete control; 13 to 15 d after treatment
# Summary of the method: as §2
# [6] = test system: barnyardgrass (Echinochloa crus-galli); assay: Test B flooded paddy test; settings: 250 g ai/ha, Flood; visual rating on scale of 0 to 100 where 0 is no effect and 100 is complete control; 13 to 15 d after treatment
# Summary of the method: as §2
# [7] = test system: sedge, umbrella (small-flower umbrella sedge, Cyperus difformis); assay: Test B flooded paddy test; settings: 250 g ai/ha, Flood; visual rating on scale of 0 to 100 where 0 is no effect and 100 is complete control; 13 to 15 d after treatment
# Summary of the method: as §2
# [8] = test system: galium (catchweed bedstraw, Galium aparine); assay: Test A greenhouse herbicide test, postemergence; settings: for Plant response rating, Galium: 125 g ai/ha, 0 to 100 scale where 0 is no effect and 100 is complete control; for Galium plant response rating: 500 g ai/ha, 0 to 100 scale, 0 is no effect, 100 is complete control
# Summary of the method: (§3)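 Pot-grown plants (loam soil/sand blend), 2–10 cm tall at the one- to two-leaf stage, received postemergence sprays of formulated test chemical. After about 10 d in the greenhouse, injury was rated visually against untreated controls on a 0 (no effect) to 100 (complete control) scale.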
# [9] = test system: blackgrass (Alopecurus myosuroides); assay: Test A greenhouse herbicide test, postemergence; settings: for Plant response rating, Blackgrass: 125 g ai/ha, 0 to 100 scale where 0 is no effect and 100 is complete control; for Blackgrass plant response rating: 500 g ai/ha, 0 to 100 scale, 0 is no effect, 100 is complete control
# Summary of the method: as §3
# [10] = test system: pigweed (Amaranthus retroflexus); assay: Test C greenhouse herbicide test, pre- and postemergence
# Summary of the method: (§4)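 Visual ratings on a 0 to 100 scale (0 = no effect, 100 = complete control) versus untreated controls, scored 13–15 d after treatment. Soil-applied preemergence to seeded loam/sand; foliar postemergence to 1- to 4-leaf plants (2–18 cm) in peat-vermiculite mix; compounds formulated in solvent plus surfactant.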
# [11] = test system: johnsongrass (Sorghum halepense); assay: as above
# Summary of the method: as §4
# [12] = test system: wheat (winter wheat, Triticum aestivum); assay: as above
# Summary of the method: as §4
# [13] = Postemergence, 31 g ai/ha, 0 to 100 scale (0 no effect, 100 complete control)
# [14] = Postemergence, 125 g ai/ha, scale 0 to 100, 0 is no effect, 100 is complete control
# [15] = Postemergence, 250 g ai/ha, scale 0 to 100, 0 no effect, 100 complete control, 13 to 15 d
# [16] = postemergence, 62 g ai/ha, scale 0 to 100, 0 no effect, 100 complete control
# [17] = Preemergence, 31 g ai/ha, scale 0 to 100, 0 is no effect, 100 is complete control
# [18] = Preemergence, 62 g ai/ha, scale 0 to 100, 0 is no effect, 100 is complete control
# [19] = Preemergence, 125 g ai/ha, scale 0 to 100, 0 is no effect, 100 is complete control
# [20] = Preemergence, 250 g ai/ha, scale 0 to 100, 0 no effect, 100 complete control
smiles,measurement,setting,value
Cc1ccc2sc(C)c(-c3c(OC(=O)OC(C)C)c(C)nn(C)c3=O)c2c1 [Compound 66],Chickweed plant response rating,[1]; [13],90
same,"Plant response rating, Chickweed",[1]; [14],95
same,"Plant response rating, Chickweed",[1]; [15],95
same,Chickweed plant response rating,[1]; [16],95
same,Kochia plant response rating,[2]; [13],90
same,"Plant response rating, Kochia",[2]; [14],90
same,"Plant response rating, Kochia",[2]; [15],98
same,Kochia plant response rating,[2]; [16],90
same,"Oat, Wild plant response rating",[3]; [13],55
same,"Plant response rating, Oat, Wild",[3]; [14],90
same,"Plant response rating, Oat, Wild",[3]; [15],90
same,"Oat, Wild plant response rating",[3]; [16],80
same,"Plant response rating, Ducksalad",[4],0
same,"Plant response rating, Rice",[5],0
same,"Plant response rating, Barnyardgrass",[6],0
same,"Plant response rating, Sedge, Umbrella",[7],0
same,"Plant response rating, Galium",[8],90
same,Galium plant response rating,[8],90
same,"Plant response rating, Blackgrass",[9],60
same,Blackgrass plant response rating,[9],80
same,Pigweed plant response rating,[10]; [13],95
same,"Plant response rating, Pigweed",[10]; [14],100
same,"Plant response rating, Pigweed",[10]; [15],100
same,"Plant response rating, Pigweed",[10]; [17],100
same,"Plant response rating, Pigweed",[10]; [18],100
same,"Plant response rating, Pigweed",[10]; [19],100
same,Pigweed plant response rating,[10]; [20],100
same,Pigweed plant response rating,[10]; [16],98
same,Johnsongrass plant response rating,[11]; [13],5
same,"Plant response rating, Johnsongrass",[11]; [14],5
same,"Plant response rating, Johnsongrass",[11]; [15],15
same,"Plant response rating, Johnsongrass",[11]; [17],10
same,"Plant response rating, Johnsongrass",[11]; [18],25
same,"Plant response rating, Johnsongrass",[11]; [19],55
same,Johnsongrass plant response rating,[11]; [20],65
same,Johnsongrass plant response rating,[11]; [16],5
same,Wheat plant response rating,[12]; [13],0
same,"Plant response rating, Wheat",[12]; [14],0
same,"Plant response rating, Wheat",[12]; [15],0
same,"Plant response rating, Wheat",[12]; [17],0
same,"Plant response rating, Wheat",[12]; [18],0
same,"Plant response rating, Wheat",[12]; [19],0
same,Wheat plant response rating,[12]; [20],40
same,Wheat plant response rating,[12]; [16],0
Cc1ccc2ccccc2c1-c1c(OC(=O)OC(C)C)c(C)nn(C)c1=O [Compound 72],Chickweed plant response rating,[1]; [13],90
same,"Plant response rating, Chickweed",[1]; [14],90
same,"Plant response rating, Chickweed",[1]; [15],90
same,Chickweed plant response rating,[1]; [16],90
same,Kochia plant response rating,[2]; [13],60
same,"Plant response rating, Kochia",[2]; [14],90
same,"Plant response rating, Kochia",[2]; [15],90
same,Kochia plant response rating,[2]; [16],85
same,"Oat, Wild plant response rating",[3]; [13],85
same,"Plant response rating, Oat, Wild",[3]; [14],90
same,"Plant response rating, Oat, Wild",[3]; [15],95
same,"Oat, Wild plant response rating",[3]; [16],95
same,"Plant response rating, Ducksalad",[4],0
same,"Plant response rating, Rice",[5],0
same,"Plant response rating, Barnyardgrass",[6],0
same,"Plant response rating, Sedge, Umbrella",[7],0
same,"Plant response rating, Galium",[8],90
same,Galium plant response rating,[8],100
same,"Plant response rating, Blackgrass",[9],70
same,Blackgrass plant response rating,[9],90
same,Pigweed plant response rating,[10]; [13],85
same,"Plant response rating, Pigweed",[10]; [14],95
same,"Plant response rating, Pigweed",[10]; [15],98
same,"Plant response rating, Pigweed",[10]; [17],90
same,"Plant response rating, Pigweed",[10]; [18],98
same,"Plant response rating, Pigweed",[10]; [19],98
same,Pigweed plant response rating,[10]; [20],100
same,Pigweed plant response rating,[10]; [16],90
same,Johnsongrass plant response rating,[11]; [13],5
same,"Plant response rating, Johnsongrass",[11]; [14],5
same,"Plant response rating, Johnsongrass",[11]; [15],45
same,"Plant response rating, Johnsongrass",[11]; [17],0
same,"Plant response rating, Johnsongrass",[11]; [18],25
same,"Plant response rating, Johnsongrass",[11]; [19],80
same,Johnsongrass plant response rating,[11]; [20],85
same,Johnsongrass plant response rating,[11]; [16],5
same,Wheat plant response rating,[12]; [13],30
same,"Plant response rating, Wheat",[12]; [14],5
same,"Plant response rating, Wheat",[12]; [15],35
same,"Plant response rating, Wheat",[12]; [17],0
same,"Plant response rating, Wheat",[12]; [18],0
same,"Plant response rating, Wheat",[12]; [19],30
same,Wheat plant response rating,[12]; [20],40
same,Wheat plant response rating,[12]; [16],30
Cc1nn(C)c(=O)c(-c2ccc(Br)c3ccccc23)c1O [Compound 75],Chickweed plant response rating,[1]; [13],95
same,"Plant response rating, Chickweed",[1]; [14],95
same,"Plant response rating, Chickweed",[1]; [15],95
same,Chickweed plant response rating,[1]; [16],90
same,Kochia plant response rating,[2]; [13],90
same,"Plant response rating, Kochia",[2]; [14],95
same,"Plant response rating, Kochia",[2]; [15],95
same,Kochia plant response rating,[2]; [16],85
same,"Oat, Wild plant response rating",[3]; [13],40
same,"Plant response rating, Oat, Wild",[3]; [14],40
same,"Plant response rating, Oat, Wild",[3]; [15],35
same,"Oat, Wild plant response rating",[3]; [16],35
same,"Plant response rating, Ducksalad",[4],0
same,"Plant response rating, Rice",[5],15
same,"Plant response rating, Barnyardgrass",[6],0
same,"Plant response rating, Sedge, Umbrella",[7],0
same,"Plant response rating, Galium",[8],90
same,Galium plant response rating,[8],100
same,"Plant response rating, Blackgrass",[9],50
same,Blackgrass plant response rating,[9],70
same,Pigweed plant response rating,[10]; [13],85
same,"Plant response rating, Pigweed",[10]; [14],100
same,"Plant response rating, Pigweed",[10]; [15],98
same,"Plant response rating, Pigweed",[10]; [17],85
same,"Plant response rating, Pigweed",[10]; [18],100
same,"Plant response rating, Pigweed",[10]; [19],100
same,Pigweed plant response rating,[10]; [20],100
same,Pigweed plant response rating,[10]; [16],95
same,Johnsongrass plant response rating,[11]; [13],5
same,"Plant response rating, Johnsongrass",[11]; [14],5
same,"Plant response rating, Johnsongrass",[11]; [15],10
same,"Plant response rating, Johnsongrass",[11]; [17],0
same,"Plant response rating, Johnsongrass",[11]; [18],20
same,"Plant response rating, Johnsongrass",[11]; [19],20
same,Johnsongrass plant response rating,[11]; [20],10
same,Johnsongrass plant response rating,[11]; [16],5
same,Wheat plant response rating,[12]; [13],0
same,"Plant response rating, Wheat",[12]; [14],0
same,"Plant response rating, Wheat",[12]; [15],0
same,"Plant response rating, Wheat",[12]; [17],0
same,"Plant response rating, Wheat",[12]; [18],0
same,"Plant response rating, Wheat",[12]; [19],10
same,Wheat plant response rating,[12]; [20],5
same,Wheat plant response rating,[12]; [16],0
Cc1ccc2sc(Br)c(-c3c(O)c(C)nn(C)c3=O)c2c1 [Compound 79],Chickweed plant response rating,[1]; [13],90
same,"Plant response rating, Chickweed",[1]; [14],90
same,"Plant response rating, Chickweed",[1]; [15],90
same,Chickweed plant response rating,[1]; [16],90
same,Kochia plant response rating,[2]; [13],50
same,"Plant response rating, Kochia",[2]; [14],90
same,"Plant response rating, Kochia",[2]; [15],90
same,Kochia plant response rating,[2]; [16],90
same,"Oat, Wild plant response rating",[3]; [13],50
same,"Plant response rating, Oat, Wild",[3]; [14],85
same,"Plant response rating, Oat, Wild",[3]; [15],90
same,"Oat, Wild plant response rating",[3]; [16],60
same,"Plant response rating, Ducksalad",[4],0
same,"Plant response rating, Rice",[5],0
same,"Plant response rating, Barnyardgrass",[6],0
same,"Plant response rating, Sedge, Umbrella",[7],0
same,"Plant response rating, Galium",[8],90
same,Galium plant response rating,[8],90
same,"Plant response rating, Blackgrass",[9],70
same,Blackgrass plant response rating,[9],80
same,Pigweed plant response rating,[10]; [13],90
same,"Plant response rating, Pigweed",[10]; [14],98
same,"Plant response rating, Pigweed",[10]; [15],98
same,"Plant response rating, Pigweed",[10]; [17],100
same,"Plant response rating, Pigweed",[10]; [18],100
same,"Plant response rating, Pigweed",[10]; [19],100
same,Pigweed plant response rating,[10]; [20],100
same,Pigweed plant response rating,[10]; [16],98
same,Johnsongrass plant response rating,[11]; [13],5
same,"Plant response rating, Johnsongrass",[11]; [14],10
same,"Plant response rating, Johnsongrass",[11]; [15],10
same,"Plant response rating, Johnsongrass",[11]; [17],10
same,"Plant response rating, Johnsongrass",[11]; [18],35
same,"Plant response rating, Johnsongrass",[11]; [19],40
same,Johnsongrass plant response rating,[11]; [20],30
same,Johnsongrass plant response rating,[11]; [16],5
same,Wheat plant response rating,[12]; [13],0
same,"Plant response rating, Wheat",[12]; [14],0
same,"Plant response rating, Wheat",[12]; [15],0
same,"Plant response rating, Wheat",[12]; [17],0
same,"Plant response rating, Wheat",[12]; [18],0
same,"Plant response rating, Wheat",[12]; [19],0
same,Wheat plant response rating,[12]; [20],0
same,Wheat plant response rating,[12]; [16],0
